The NIST ThermoML archive (doi:10.1016/j.jct.2015.07.028)

Experiment: molar heat capacity at saturation pressure
Settings: Small (less than 1 g) adiabatic calorimetry

C=CC(C)(C)O [2-methyl-3-buten-2-ol]
molar heat capacity [J/K/mol]
Settings | Crystal 1 | Liquid
169.35 K | 120.3 | –
169.77 K | 120.8 | –
170 K | 121 | –
171.3 K | 122.5 | –
172.07 K | 123.4 | –
173.24 K | 124.6 | –
174.35 K | 125.9 | –
175.17 K | 126.8 | –
176.62 K | 128.4 | –
177.09 K | 128.8 | –
178.87 K | 130.7 | –
179 K | 130.8 | –
179.83 K | 131.6 | –
180 K | 131.9 | –
180.91 K | 132.7 | –
181.12 K | 133 | –
182.29 K | 134.1 | –
182.8 K | 134.7 | –
183.35 K | 135.2 | –
184.61 K | 136.5 | –
184.69 K | 136.5 | –
185.57 K | 137.5 | –
186.58 K | 138.4 | –
186.93 K | 138.7 | –
187.79 K | 139.5 | –
188.45 K | 140.2 | –
189.23 K | 140.9 | –
189.99 K | 141.7 | –
190 K | 141.7 | –
190.32 K | 141.9 | –
190.4 K | 142 | –
191.52 K | 143.1 | –
192.18 K | 143.7 | –
192.46 K | 144.1 | –
193.79 K | 145.4 | –
194.04 K | 145.5 | –
194.36 K | 146 | –
194.42 K | 146 | –
195.89 K | 147.4 | –
196.05 K | 147.7 | –
196.36 K | 147.9 | –
196.53 K | 148.2 | –
197.73 K | 149.3 | –
198.3 K | 150 | –
198.69 K | 150.5 | –
199.56 K | 151.3 | –
200 K | 151.5 | –
200.23 K | 152 | –
200.54 K | 152.4 | –
200.84 K | 152.9 | –
201.38 K | 153.4 | –
202.15 K | 154.2 | –
202.82 K | 155.2 | –
202.98 K | 155.5 | –
203.2 K | 155.5 | –
204.05 K | 156.6 | –
205 K | 157.8 | –
205.1 K | 158.3 | –
205.14 K | 158.2 | –
205.95 K | 159.3 | –
206.79 K | 160.4 | –
207.21 K | 161.1 | –
207.45 K | 161.3 | –
207.83 K | 162 | –
208.58 K | 163 | –
209.3 K | 164.2 | –
209.7 K | 164.9 | –
209.73 K | 164.8 | –
210 K | 161.4 | –
210.51 K | 166.1 | –
211.48 K | 167.6 | –
211.99 K | 168.4 | –
212.63 K | 169.5 | –
213.77 K | 171.3 | –
214.23 K | 172.1 | –
214.72 K | 172.9 | –
216.04 K | 174.8 | –
216.46 K | 175.1 | –
216.8 K | 176 | –
218.3 K | 178.6 | –
218.66 K | 178.8 | –
218.86 K | 179 | –
220 K | 171.2 | –
220.53 K | 182.2 | –
220.85 K | 182.3 | –
220.9 K | 182.4 | –
222.77 K | 186.2 | –
222.93 K | 186.4 | –
223.02 K | 186.5 | –
224.94 K | 191.2 | –
224.97 K | 190.4 | –
225.17 K | 191 | –
226.94 K | 195.7 | –
227.09 K | 196.6 | –
227.29 K | 196 | –
228.88 K | 201.4 | –
229.2 K | 202.9 | –
229.37 K | 202.7 | –
230.8 K | 208.3 | –
231.27 K | 210.9 | –
231.43 K | 210.5 | –
232.67 K | 217.3 | –
233.3 K | 221.6 | –
233.43 K | 221.3 | –
234.49 K | 229.7 | –
235.25 K | 237.1 | –
235.37 K | 236.9 | –
236.24 K | 248.1 | –
240 K | 190.8 | –
245.03 K | 195.7 | 193.8
245.63 K | – | 195.7
245.81 K | – | 194.6
246.77 K | – | 194.9
247.82 K | – | 195.6
247.97 K | – | 195.7
248.89 K | – | 196.3
249.15 K | – | 196.4
250 K | – | 197.1
250.07 K | – | 197.1
250.13 K | – | 197.2
250.55 K | – | 197.4
251.14 K | – | 197.8
251.38 K | – | 197.9
252.31 K | – | 198.7
252.44 K | – | 198.8
252.58 K | – | 198.8
253.39 K | – | 199.4
253.62 K | – | 199.5
254.55 K | – | 200.3
254.63 K | – | 200.3
254.88 K | – | 200.5
255.63 K | – | 201
255.85 K | – | 201.2
256.68 K | – | 201.8
256.78 K | – | 201.9
257.32 K | – | 202.4
257.86 K | – | 202.7
258.07 K | – | 202.9
258.73 K | – | 203.4
259 K | – | 203.6
259.76 K | – | 204.2
260 K | – | 204.4
260.78 K | – | 205
262.18 K | – | 206.2
262.83 K | – | 206.7
264.6 K | – | 208.1
264.88 K | – | 208.4
266.93 K | – | 210
267.01 K | – | 210.2
268.98 K | – | 211.8
269.4 K | – | 212.2
270 K | – | 212.7
271.03 K | – | 213.5
271.79 K | – | 214.3
273.08 K | – | 215.2
273.15 K | – | 215.4
274.18 K | – | 216.2
275.13 K | – | 217.1
276.55 K | – | 218.4
277.18 K | – | 218.9
278.91 K | – | 220.5
279.23 K | – | 220.7
280 K | – | 221.4
281.26 K | – | 222.6
281.28 K | – | 222.6
283.33 K | – | 224.4
283.61 K | – | 224.6
285.38 K | – | 226.2
285.94 K | – | 226.8
287.43 K | – | 228
288.26 K | – | 228.9
289.48 K | – | 229.9
290 K | – | 230.3
290.57 K | – | 230.9
291.53 K | – | 231.6
292.87 K | – | 232.8
293.58 K | – | 233.4
295.16 K | – | 234.7
295.63 K | – | 235.2
297.44 K | – | 236.8
297.69 K | – | 236.9
298.15 K | – | 237.4
299.72 K | – | 238.7
299.74 K | – | 238.7
300 K | – | 238.9
301.79 K | – | 240.4
303.84 K | – | 242.1
305.9 K | – | 243.7
307.95 K | – | 245.3
310 K | – | 246.9
310.01 K | – | 246.9
312.06 K | – | 248.3
314.12 K | – | 249.9
316.18 K | – | 251.3
318.23 K | – | 252.8
320 K | – | 253.9
320.29 K | – | 254.1
322.35 K | – | 255.4
324.41 K | – | 256.7
326.47 K | – | 258
328.53 K | – | 259.1
330 K | – | 259.9
330.59 K | – | 260.2
332.65 K | – | 261.4
334.71 K | – | 262.3
336.78 K | – | 263.3
338.84 K | – | 264.2
340 K | – | 264.7
340.9 K | – | 265
342.97 K | – | 265.8
345.03 K | – | 266.6
347.09 K | – | 267.3
349.16 K | – | 268
350 K | – | 268.3
351.22 K | – | 268.7
353.29 K | – | 269.1
355.35 K | – | 269.8
357.42 K | – | 270.4
359.48 K | – | 270.9
360 K | – | 270.9
361.55 K | – | 271.3
363.61 K | – | 271.6
365.68 K | – | 272.1
367.74 K | – | 272.4
370 K | – | 272.9
